Measured values from US6645983B1, “Pharmaceutical compositions comprising 4-quinolones for treating cancers” (Laboratoire L. Lafon, priority 1999, dated 2003).
Like-named read-outs stand apart in the source and are kept apart here.

Experiments:
T24 = assay: MTT test, cytotoxic activity on non-clonogenic cell lines; format: cell-based; conditions: Homo sapiens, T-24, 10^−5 M, mean value
How it was run: (§1)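 Human bladder cancer lines were seeded at 20 000–50 000 cells/ml and, after 24 h, exposed to compounds at 10^−5 to 10^−10 M against a solvent control. Formazan was dissolved in DMSO and viability was read by spectrophotometric optical density.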

J82 = assay: as above; format: cell-based; conditions: Homo sapiens, 10^−5 M, mean value
How it was run: as §1

PC-3 = assay: MTT test, cytotoxic activity on non-clonogenic cell lines; format: cell-based; conditions: Homo sapiens, 10^−5 M, mean value
How it was run: (§2)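 Compounds span 10^−5 to 10^−10 M, with solvent-treated wells as control, and the formazan is quantified by absorbance after DMSO solubilization.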

LoVo = assay: as above; format: cell-based; conditions: Homo sapiens, 10^−5 M, mean value
How it was run: as §2

HCT-15 [1] = assay: as above; format: cell-based; conditions: Homo sapiens, mean value
How it was run: as §2

U-373MG = assay: as above; format: cell-based; conditions: Homo sapiens, U373 MG, 10^−5 M, mean value
How it was run: as §2

A-427 = assay: as above; format: cell-based; conditions: Homo sapiens, 10^−5 M, mean value
How it was run: as §2

U-87MG = assay: as above; format: cell-based; conditions: Homo sapiens, 10^−5 M, mean value
How it was run: as §2

T-47D = assay: as above; format: cell-based; conditions: Homo sapiens, T47D, 10^−5 M, mean value
How it was run: as §2

A549 = assay: as above; format: cell-based; conditions: Homo sapiens, 10^−5 M, mean value
How it was run: as §2

MCF7 = assay: as above; format: cell-based; conditions: Homo sapiens, 10^−5 M, mean value
How it was run: as §2

SW1088 = assay: as above; format: cell-based; conditions: Homo sapiens, 10^−5 M, mean value
How it was run: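 Human astrocytoma SW1088 cells seeded, grown 24 h at 37° C, 5% CO2, then exposed to compounds at 10^−5 to 10^−10 M versus solvent control. Viability by MTT reduction: 3 h MTT incubation, formazan dissolved in DMSO and read by spectrophotometry.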

HCT-15 [2] = assay: cells; conditions: Homo sapiens, HCT-15, read-out: concentration that inhibits by 50% (IC50) the in vitro cell growth of the HCT-15 line
HCT-15 [3] = tested on: HCT-15
[4] = 72 hours incubation, MTT, read-out: mean optical density, expressed as percentage relative to the mean optical density under the control condition (100%)
[5] = 72 hours of incubation, control condition = 100%, read-out: mean optical density as percentage of control, T24
[6] = 72 hours of incubation, control condition = 100%, read-out: mean optical density as percentage of control, J82
[7] = 72 hours of incubation, control condition = 100%, read-out: mean optical density as percentage of control, PC-3
[8] = 72 hours of incubation, control condition = 100%, read-out: mean optical density as percentage of control, LoVo
[9] = 10^−5 M, 72 hours of incubation, control condition = 100%, read-out: mean optical density as percentage of control, HCT-16
[10] = 72 hours of incubation, control condition = 100%, read-out: mean optical density as percentage of control, U-373MG
[11] = 72 hours of incubation, control condition = 100%, read-out: mean optical density as percentage of control, A-427
[12] = U-87 MG, 72 hours of incubation, control condition = 100%, read-out: mean optical density as percentage of control, U-87MG
[13] = 72 hours of incubation, control condition = 100%, read-out: mean optical density as percentage of control, T-47D
[14] = 72 hours of incubation, control condition = 100%, read-out: mean optical density as percentage of control, A549
[15] = 72 hours of incubation, control condition = 100%, read-out: mean optical density as percentage of control, MCF7
[16] = 72 hours of incubation, control condition = 100%, read-out: mean optical density as percentage of control, SW1088

COc1ccc(-c2cn(CCN(C)C)c3cc(OC)ccc3c2=O)cc1 [CRL8469, N-[3-(Dimethylamino)ethyl]-7-methoxy-3-(4-methoxyphenyl)-1,4-dihydro-4-quinolinone] showed a viability at 10 µM (T24; T24, 72 hours incubation, MTT, read-out: mean optical density, expressed as percentage relative to the mean optical density under the control condition (100%)) of 98.1%, a viability at 10 µM (J82; [4]) of 89.5% and a melting point of 142 to 143 °C. For the same compound, the viability at 10 µM (PC-3; [4]) was 99.9%, the viability at 10 µM (LoVo; [4]) was 95.9% and the viability at 10 µM (HCT-15 [1]; HCT-16, 10^−5 M, 72 hours incubation, MTT, read-out: mean optical density, expressed as percentage relative to the mean optical density under the control condition (100%)) was 101%. The viability at 10 µM (U-373MG; U-373MG, 72 hours incubation, MTT, read-out: mean optical density, expressed as percentage relative to the mean optical density under the control condition (100%)) was 102%, the viability at 10 µM (A-427; [4]) was 102% and the viability at 10 µM (U-87MG; U-87MG, 72 hours incubation, MTT, read-out: mean optical density, expressed as percentage relative to the mean optical density under the control condition (100%)) was 108%. It also gave a viability at 10 µM (T-47D; T-47D, 72 hours incubation, MTT, read-out: mean optical density, expressed as percentage relative to the mean optical density under the control condition (100%)) of 103%, a viability at 10 µM (A549; [4]) of 100% and a viability at 10 µM (MCF7; [4]) of 97.6%. It also gave a viability at 10 µM (SW1088; [4]) of 105%.

COc1ccc(-c2cn(CCCC#N)c3c(OC)ccc(OC)c3c2=O)cc1 [CRL8421, 4-[5,8-Dimethoxy-3-(4-methoxyphenyl)-4-oxo-1,4-dihydro-1-quinolinyl]butanenitrile] gave a viability at 10 µM (T24; [5]) of 40.3%, a viability at 10 µM (J82; [6]) of 47.1% and a melting point of 126 to 127 °C. For the same compound, the viability at 10 µM (PC-3; [7]) was 61.4%, the viability at 10 µM (LoVo; [8]) was 60.8% and the viability at 10 µM (HCT-15 [1]; [9]) was 50%. For the same compound, the viability at 10 µM (U-373MG; [10]) was 81.7%, the viability at 10 µM (A-427; [11]) was 33% and the viability at 10 µM (U-87MG; [12]) was 29.9%. For the same compound, the viability at 10 µM (T-47D; [13]) was 83.5%, the viability at 10 µM (A549; [14]) was 97.5% and the viability at 10 µM (MCF7; [15]) was 49.5%. For the same compound, the viability at 10 µM (SW1088; [16]) was 51%.

Work on COc1cccc2c1C(=O)c1c(O)c3c(c(O)c1C2=O)C[C@@](O)(C(=O)CO)C[C@@H]3O[C@H]1C[C@H](N)[C@H](O)[C@H](C)O1 [adriamycin, reference compound] yielded an IC50 (HCT-15 [2]) of 100 nM and an inhibition (HCT-15 [3]) of 42.8%.

COc1cc([C@@H]2c3cc4c(cc3[C@@H](O[C@@H]3O[C@@H]5CO[C@@H](C)O[C@H]5[C@H](O)[C@H]3O)[C@H]3COC(=O)[C@H]23)OCO4)cc(OC)c1O [etoposide] showed an IC50 (HCT-15 [2]) of 1000 nM.

Compound C=Cc1ccc(OC)c2c1c(=O)c(-c1ccc(OC)cc1)cn2C [CRL8512, 8-Methoxy-3-(4-methoxyphenyl)-1-methyl-5-vinyl-1,4-dihydro-4-quinolinone] has a melting point of 104 to 105 °C.

In the case of COc1ccc(-c2cn(CCOS(=O)(=O)c3ccc(C)cc3)c3c(OC)ccc(OC)c3c2=O)cc1 [CRL8517, 4-2-[5,8-Dimethoxy-3-(4-methoxyphenyl)-4-oxo-1,4-dihydro-1-quinolyl]ethyl p-Toluenesulfonate], the melting point is reported as 85 to 86 °C.

COc1ccc(-c2cnc3c(OC)ccc(OC)c3c2OCCCC#N)cc1 [CRL8501, {[5,8-Dimethoxy-3-(4-methoxyphenyl)-4-quinolyl]oxy}butanenitrile] gave a melting point of 117 to 118 °C.

Work on COc1ccc(-c2cnc3c(OC)ccc(OC)c3c2OCCN(C)C)cc1 [CRL8370, N-{2-[5,8-Dimethoxy-3-(4-methoxyphenyl)-4-quinolyl]oxy}ethyl-N,N-dimethylamine] yielded a viability at 10 µM (T24; [5]) of 74.3%, a viability at 10 µM (J82; [6]) of 102% and a melting point of 69 to 70 °C. The “amplification compared with the activity of adriamycin alone (gain / activity alone)” value (HCT-15 [3]; 10^−5 M compound + 10^−7 M adriamycin, 15.2/42.8) was “about 35%”, the viability at 10 µM (PC-3; [7]) was 87.1% and the viability at 10 µM (LoVo; [8]) was 95.1%. For the same compound, the viability at 10 µM (HCT-15 [1]; [9]) was 103%, the viability at 10 µM (U-373MG; [10]) was 105% and the viability at 10 µM (A-427; [11]) was 76%. For the same compound, the viability at 10 µM (U-87MG; [12]) was 104%, the viability at 10 µM (T-47D; [13]) was 88.5% and the viability at 10 µM (A549; [14]) was 85.6%. It also gave a viability at 10 µM (MCF7; [15]) of 88.5% and a viability at 10 µM (SW1088; [16]) of 99.4%.
